Assay results reported in ChEMBL document CHEMBL6115028, “An Amazing 30-Year Journey around the DABO Family: A Medicinal Chemistry Lesson on a Versatile Class of Non-nucleoside HIV-1 Reverse Transcriptase Inhibitors” (J Med Chem, 2025).
Each block holds one molecule with its values, some of them ahead of it.

Columns and labels:
[1] = system: Human immunodeficiency virus 1; assay: Antiviral activity against HIV-1 NL4-3 harboring infected Y181C mutant infected in human MT4 cells assessed as reduction in viral replication; assay type: functional, organism-based; conditions: Human immunodeficiency virus 1, NL4-3, MT4
[2] = system: Human immunodeficiency virus 1; assay: Antiviral activity against wild type HIV-1 NL4-3 infected in human MT4 cells assessed as reduction in viral replication; assay type: functional, organism-based; conditions: Human immunodeficiency virus 1, NL4-3, MT4
[3] = system: Human immunodeficiency virus 1; assay: Antiviral activity against HIV-1 harboring protease V82F mutant infected in human C8166 cells assessed as inhibition of viral replication measured for 72 hrs by spectrophotometric MTT assay; assay type: functional, organism-based; conditions: Human immunodeficiency virus 1, C8166, 72 h
[4] = Cytotoxicity against African green monkey Vero cells assessed as reduction in cell viability incubated for 72 hrs by MTT assay; assay type: toxicity, cell-based; conditions: chlorocebus sabaeus
[5] = system: C8166; assay: Cytotoxicity against human C8166 cells assessed as reduction in cell viability; assay type: functional
[6] = Cytotoxicity against african green monkey Vero cells assessed as reduction in cell viability measured after 72 hrs by MTT assay; assay type: toxicity, cell-based; conditions: chlorocebus sabaeus
[7] = Selectivity index, ratio of CC50 for cytotoxicity against human MT2 cells to EC50 for antiviral activity against HIV-1 IIIB infected in human MT2 cells; assay type: toxicity, cell-based; conditions: read-out: Ratio CC50/EC50
[8] = system: Human immunodeficiency virus 1; assay: Antiviral activity against HIV-1 IIIB infected in human C8166 cells assessed as reduction in virus -induced cytopathic effect measured after 48 hrs by CellTiter-Glo Luminescent cell viability assay; assay type: functional, organism-based; conditions: Human immunodeficiency virus 1, IIIB, C8166, 48 h
[9] = system: Human immunodeficiency virus 1; assay: Antiviral activity against wild-type HIV-1 IIIB infected in human MT4 cells assessed as reduction in virus-induced cytopathic effect incubated for 5 days by MTT assay; assay type: functional, organism-based; conditions: Human immunodeficiency virus 1, IIIB, MT4, 120 h
[10] = system: Human immunodeficiency virus 1; assay: Antiviral activity against HIV-1 IIIB infected in human C8166 cells; assay type: functional, organism-based; conditions: Human immunodeficiency virus 1, IIIB
[11] = system: Human immunodeficiency virus 2; assay: Antiviral activity against HIV-2 ROD infected in human MT4 cells assessed as virus-induced cytopathic effect incubated for 5 days by MTT assay; assay type: functional, organism-based; conditions: Human immunodeficiency virus 2, ROD, MT4, 120 h
[12] = system: MT4; assay: Cytotoxicity against human MT4 cells assessed as reduction in cell growth incubated for 3 days by CellTiter-Glo luminescent assay; assay type: functional; conditions: MT4, 72 h, time 3 day
[13] = system: MT4; assay: Cytotoxicity against human MT4 cells assessed as reduction in cell growth after 5 days by MTT assay; assay type: functional; conditions: MT4, 120 h, time 5 day
[14] = Selectivity index, ratio of CC50 for human MT4 cells to EC50 for antiviral activity against HIV1 infected in human MT4 cells; assay type: toxicity, cell-based; conditions: read-out: Ratio CC50/EC50
[15] = system: MT4; assay: Cytotoxicity against human MT4 cells; assay type: functional
[16] = system: Human immunodeficiency virus 1; assay: Antiviral activity against HIV-1 NL4-3 infected in human MT2 cells assessed as reduction in viral replication assessed as inhibition of viral growth incubated for 72 hrs by ELISA; assay type: functional, organism-based; conditions: Human immunodeficiency virus 1, NL4-3, MT2, 72 h
[17] = system: MT4; assay: Cytotoxicity against human MT4 cells assessed as reduction in cell viability incubated for 4 days by MTT assay; assay type: functional; conditions: MT4, 96 h, time 4 day
[18] = system: Human immunodeficiency virus 1; assay: Antiviral activity against […] infected in human MT4 cells assessed as reduction in cytopathic effect measured after 4 days by MTT assay; assay type: functional, organism-based; conditions: Human immunodeficiency virus 1, IIIB, MT4, 96 h
[19] = system: Human immunodeficiency virus 1; assay: Antiviral activity against wild type HIV-1 IIIB harboring Y181C/K103N double mutant infected in human MT4 cells assessed as reduction in cytopathic effect measured after 4 days by MTT assay; assay type: functional, organism-based; conditions: Human immunodeficiency virus 1, IIIB, MT4, 96 h
[20] = read-out: ED50 (the source's name)

Structure (SMILES): COC(=O)[C@H](C)NP(=O)(Oc1ccccc1)Oc1nc(N(C)C)nc(C(C)c2c(F)cccc2F)c1C (stereo partly specified)
EC50 [1]: 1.2 µM
EC50 ([2]; read-out: EC50): 0.007 µM

Structure (SMILES): CSCSc1nc(Cc2c(F)cccc2Cl)cc(=O)[nH]1
EC50 [3]: 0.4 µM
CC50 at 72 h [4]: 55.3 µM

Structure (SMILES): Cc1c(OP(=O)(N[C@@H](C)C(=O)OCc2ccccc2)Oc2ccccc2)nc(N(C)C)nc1C(C)c1c(F)cccc1F (stereo partly specified)
EC50 [1]: 1.1 µM
EC50 ([2]; read-out: EC50): 0.01 µM

Structure (SMILES): CC(C)CCSc1nc(Cc2c(F)cccc2F)cc(=O)[nH]1
CC50 [5]: > 200 µM
CC50 at 72 h [6]: > 200 µM
selectivity ratio [7]: > 4000
EC50 [8]: 0.05 µM

Structure (SMILES): CCCCNc1nc(C(C)c2c(F)cccc2F)c(C)c(=O)[nH]1 (stereo unspecified)
EC50 [9]: 0.04 µM

Structure (SMILES): CSCSc1nc(Cc2c(Cl)cccc2Cl)cc(=O)[nH]1
EC50 [3]: 1.3 µM
CC50 at 72 h [4]: 48.1 µM

Structure (SMILES): Cc1cc(C)cc(OCCSc2nc(Cc3ccccc3)cc(=O)[nH]2)c1
EC50 [3]: 1.3 µM
CC50 at 72 h [4]: 72.9 µM

EC50 [10]: 0.37 µM
Structure (SMILES): COc1ccc(C(=O)CSc2nc(Cc3ccccc3)c(C)c(=O)[nH]2)cc1
EC50 [11]: 0.42 µM
CC50 [12]: > 290 µM

Structure (SMILES): CCCCNc1nc(Cc2c(F)cccc2F)c(C)c(=O)[nH]1
EC50 [9]: 0.006 µM
CC50 [13]: 70 µM

Structure (SMILES): Cc1c([C@H](C)c2c(F)cccc2F)nc(SC2CCCCC2)[nH]c1=O
selectivity ratio [14]: > 10000
CC50 at 72 h [6]: > 200 µM

Structure (SMILES): Cc1cc(C)cc(OCCSc2nc(Cc3c(F)cccc3F)cc(=O)[nH]2)c1
EC50 [3]: 11.2 µM
CC50 at 72 h [4]: 90 µM

Structure (SMILES): Cc1c(Cc2c(F)cccc2F)nc(NC2CCCCC2)[nH]c1=O
EC50 [9]: 0.005 µM
CC50 [13]: 200 µM

EC50 [10]: 0.078 µM
Structure (SMILES): CC(C)c1c(Cc2ccccc2)nc(SCC(=O)c2ccc(F)cc2)[nH]c1=O
EC50 [11]: 32.2 µM
CC50 [12]: 186 µM

Structure (SMILES): CC(=O)c1ccc(Cn2cc(CSc3nc(Cc4c(Cl)cccc4Cl)c(C)c(=O)[nH]3)nn2)cc1
CC50 [15]: 32.5 µM

EC50 [2, 20]: 2.7 µM
Structure (SMILES): CCSCSc1nc(=O)c(CC)c(Cc2cccc3ccccc23)[nH]1

Structure (SMILES): CCCNc1nc(Cc2c(F)cccc2F)c(C)c(=O)[nH]1
EC50 [9]: 0.02 µM
CC50 [13]: > 200 µM

Structure (SMILES): CCc1c(Cc2ccccc2)nc(SC(C)CC)[nH]c1=O (stereo unspecified)
EC50 [16]: 0.04 µM

Structure (SMILES): CSCSc1nc(Cc2c(F)cccc2F)cc(=O)[nH]1
EC50 [3]: 0.8 µM
CC50 at 72 h [4]: > 200 µM

EC50 [2, 20]: 0.37 µM
Structure (SMILES): CCc1c(Cc2cccc3ccccc23)n(CSC)c(=O)[nH]c1=O

Structure (SMILES): CCC(C)Sc1nc(Cc2ccccc2)c(C(C)C)c(=O)[nH]1 (stereo unspecified)
EC50 [16]: 0.1 µM

EC50 [10]: 0.18 µM
Structure (SMILES): Cc1c(Cc2ccccc2)nc(SCC(=O)c2ccc(F)cc2)[nH]c1=O
EC50 [11]: 275 µM
CC50 [12]: 275 µM

Structure (SMILES): CSCSc1nc(Cc2ccccc2)cc(=O)[nH]1
EC50 [16]: 20 µM

EC50 [2, 20]: 4.6 µM
Structure (SMILES): CCc1c(Cc2cccc3ccccc23)[nH]c(SCSC)nc1=O

EC50 [10]: 0.07 µM
Structure (SMILES): CCc1c(Cc2ccccc2)nc(SCC(=O)c2ccc(F)cc2)[nH]c1=O
EC50 [11]: 16.3 µM
CC50 [12]: 240 µM

Structure (SMILES): Cc1c(OP(=O)(N[C@@H](C)C(=O)OC(C)(C)C)Oc2ccccc2)nc(N(C)C)nc1C(C)c1c(F)cccc1F (stereo partly specified)
EC50 [1]: 1 µM
EC50 ([2]; read-out: EC50): 0.008 µM

EC50 [2, 20]: 0.05 µM
Structure (SMILES): CCOCn1c(Cc2cccc3ccccc23)c(CC)c(=O)[nH]c1=O

Structure (SMILES): Cc1c(O)nc(SCC(C)C)nc1C(C)c1c(F)cccc1F (stereo unspecified)
selectivity ratio [14]: 28600
CC50 at 72 h [6]: 200 µM

Structure (SMILES): CC(c1cc(O)nc(SC2CCCCC2)n1)c1c(F)cccc1F (stereo unspecified)
selectivity ratio [14]: > 6670
CC50 at 72 h [6]: > 200 µM

Structure (SMILES): CCCCSc1nc(O)c(C)c(C(C)c2c(F)cccc2F)n1 (stereo unspecified)
selectivity ratio [14]: 14000
CC50 at 72 h [6]: 112 µM

Structure (SMILES): CCC(C)Sc1nc(O)cc(C(C)c2c(F)cccc2F)n1 (stereo unspecified)
selectivity ratio [14]: > 6670
CC50 at 72 h [6]: > 200 µM

Structure (SMILES): Cc1c(O)nc(SC2CCCCC2)nc1C(C)c1c(F)cccc1F (stereo unspecified)
selectivity ratio [14]: > 33300
CC50 at 72 h [6]: > 200 µM

Structure (SMILES): CCC(C)Sc1nc(O)cc(Cc2c(F)cccc2F)n1 (stereo unspecified)
CC50 [5]: > 200 µM
CC50 at 72 h [6]: > 200 µM
selectivity ratio [7]: > 5000
EC50 [8]: 0.04 µM

Structure (SMILES): Cc1c(C(C)c2c(F)cccc2F)nc(N(C)C)[nH]c1=O (racemic)
CC50 [17]: > 100 µM
EC50 [18]: 0.7 µM
EC50 [19]: 0.9 µM
